Laboratory results taken from patent publication US11998610B2, “Conjugates and methods of using the same” (Flagship Pioneering Innovations V, Inc., priority 2018, dated 2024).
Non-standard residues stand in square brackets, D forms with d. Residues, ends and D or L forms follow the SMILES beside them. *: point of attachment. Octanoyl = CCCCCCCC(=O)*; Bz = O=C(c1ccccc1)*

Columns and labels:
CT26.CL25 cells = assay: Cell viability readout (CellTiter-Glo) with bacteria-free media; type: cell-based, mouse; conditions: 72 h
Procedure: Example 100: Cell-Based Assay of Bacterial Enzymes with Mammalian CT26.CL25 Mouse Colorectal Carcinoma Viability Readout
Bacteria-free media was incubated with the indicated test compound. ((R)—N1-(2-(methylamino)ethyl)-2-octanamidosuccinamide, a recognition element-linker conjugate lacking a payload, was serially diluted 1:1000 in DMSO and […] in medium+10% FBS to give a final concentration of 10 nM. Compound 35, Compound 76, Compound 77, Compound 78, Compound 79, and SN-38 were serially diluted 1:1000 in DMSO and 1:1000 in medium to give a final concentration of 10 nM, and then the bacteria-free supernatants were tested for their ability to kill mammalian cells. As an additional control, the test compound will also be incubated with bacteria-free media. The above steps can also be performed in the presence of E. coli (CFT073 ATCC 700928, Nissle 1917, or BL21 (DE3)) to effect cleavage of the conjugates of the application.
On Day 1, CT26.CL25 cells (15,000 cells/well) were seeded in triplicate into a 24 well plate and incubated overnight in 100 μL of complete medium. The reactions (bacteria or media blank) was pelleted by centrifugation, and then the supernatant was passed through a 0.2 μm sterile filter to remove residual bacteria.
On Day 2, 300 μL of a 10 nM solution of each compound in media were applied to separate wells of CT26.CL25 cells as prepared on Day 1. The cells were incubated at 37° C. for 72 h. After this point, viability was assessed using a CellTiter-Glo kit.
Binning of the compounds was achieved by measuring cell growth or arrest (e.g. remaining cells are >90% viable, >80% viable, >70% viable, >60% viable, >50% viable, >40% viable, >30% viable, >20% viable, or >10% viable).

E. coli BL21(DE3) [1] = assay: Payload release in the presence of fecal matter, ClbP negative E. coli; type: cell-based; conditions: 10 μM compound, anaerobic, 37° C., 20 h, LCMS
Source text: (§1) This example is representative of the methods described in Example 103. Fecal samples were subjected to metagenomic whole-genome shotgun sequencing followed by querying the dataset for the presence of the clbP gene or by attempting to amplify the gene with primers specific for it by qPCR. Samples that gave a signal below the detection limit were used in subsequent steps. The fecal sample was resuspended as a 15% (w/v) slurry in Anaerobic Phosphate Buffer Saline.
(§2) Following steps 1 and 2 as detailed in Example 98, E. coli CFT073 ATCC 700928, E. coli Nissle 1917, or E. coli BL21(DE3) were grown in liquid culture.
(§3) In an anaerobic chamber, the E. coli strains were added to the fecal samples obtained in step 1 at a dilution level calculated to represent 0, 1, 10, 50, 90, 99, or 100% of all organisms present in PRAS dilution blank on a 200 μL volume. The test compound (10 μM final concentration) was added to the mixture. The test compound was also added to a bacteria-free media control under similar conditions. The plate was sealed and incubated at 37° C. for 20 h. Under similar conditions, a standard curve of both the starting material and the payload compound was made in bacteria-free media.
(§4) After 20 h, an aliquot was tested for breakdown and release of a payload by LCMS by diluting serially to a final dilution of 1:100 first with Acetonitrile (10× dilution) and then with (1:1) Mobile Phase A-0.1% Formic Acid in Water:Mobile Phase B-0.1% Formic acid in Acetonitrile (1 OX dilution), with absolute quantification compared to the external standard curve. In an ideal case, the amount of payload released in the reaction(s) with ClbP-encoding E. coli was >75% of the theoretical maximum, and none was released in the E. coli BL21(DE3) and media-alone conditions. In an acceptable case, the amount of payload released in the reaction(s) with ClbP-encoding E. coli was 25-75% of the theoretical maximum, and <25% of the theoretical maximum was released in the E. coli BL21(DE3) and media-alone conditions. In a non-preferred case, the amount of payload released in the reactions(s) with ClbP-encoding E. coli was <25% of the theoretical maximum, and >25% of the theoretical maximum was released in the E. coli BL21(DE3) and media-alone conditions.

E. coli Nissle 1917 = assay: Payload release in the presence of fecal matter, ClbP positive E. coli; type: cell-based; conditions: 10 μM compound, anaerobic, 37° C., 20 h, LCMS
Source text: as §1, §2, §3, §4

[2] = test system: E. coli CFT073 ATCC 700928 and/or E. coli Nissle 1917; assay: Cell-based assay with ClbP with LCMS, ClbP positive strain; conditions: for % Remaining in ClbP Positve Relative to Media-Only: ClbP-encoding E. coli, 10 μM compound, 37° C., 20 h; for Difference between the ClbP Positive and ClbP Negative release profiles: conclusion from Table 4
Summary of the method: (§5)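 Compound (10 μM final) incubated 20 h at 37° C, aerobically, with 1:40-diluted overnight cultures of ClbP-positive E. coli or negative BL21(DE3), in duplicate, alongside uninoculated LB. Remaining parent quantified by LC-MS/MS (MRM) after acetonitrile quench, expressed as percent of media-alone.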

E. coli BL21(DE3) [3] = assay: Cell-based assay with ClbP with LCMS, ClbP negative strain; conditions: 10 μM compound, 37° C., 20 h
Summary of the method: as §5

WT ClbP = assay: Assay with purified ClbP protein (LCMS); type: biochemical, E. coli; conditions: 20 μM WT ClbP, room temperature, 24 h
Procedure: This example is representative of the method described in Example 91 the soluble peptidase domain (amino acids 38 to 375) of ClbP or the catalytically inert mutant S95A was cloned into pET28a using previously defined boundaries as a starting point (Brotherton, J. Am. Chem. Soc., 135:3359-3362, 2013).
WT ClbP or S95A ClbP was isolated as an N-terminally tagged HiS6-SUMO1-fusion protein from […] using E. coli BL21(DE3)RIPL to express the protein. The cells were lysed in 30 mM Tris pH 8.0, 300 mM NaCl, 10% (v/v) glycerol, benzonase (Sigma-Millipore), lysozyme, B-per (ThermoFisher), and Y-per (ThermoFisher). The lysate was clarified via centrifugation (13,000 g, 20 min), and the supernatant was incubated with HiBond Ni-NTA agarose (5 mL). The resin was subsequently washed with wash buffer (30 mM Tris pH 7.5, 250 mM NaCl, 10 mM imidazole, 3% (v/v) glycerol, and 2 mM TCEP). The resin was incubated at 30° C. for 1 h with 1.4 mg ULP1 protease. The resin was then washed with an additional fraction of wash buffer. Centrifuge filtration was used to concentrate the protein, and the concentrated protein was subsequently applied to a 16/600 Superdex 200 size exclusion column with an isocratic elution of 25 mM HEPES, 25 mM Tris pH 7.4, 325 mM NaCl, 10 mM KCl and 3% (v/v) glycerol at a flow rate of […]. The fractions containing the protein were determined by SDS-PAGE, combined, and concentrated by centrifuge filtration. 3 mM TCEP was added to the concentrated protein, which was then aliquoted, flash frozen in liquid N2, and stored at −80° C.
This example is representative of the method described in Example D, ClbP was incubated with test compounds in an in vitro assay. In a typical assay, 0, 1, or 20 μM purified WT or S95A ClbP was incubated with 100 or 500 μM compound in reaction buffer (50 mM Tris-HCl pH 7.5, 37.5 mM NaCl) at room temperature for 24 h. The total volume of this reaction was 150 μL.
After 24 h, 2 volumes of acetonitrile (300 μL) were added to the reaction to quench the solution.
The reaction was centrifuged (4,000 g, 15 min), and then the supernatant was analyzed by LCMS. 5 μL of the supernatant was injected onto an Acquity UPLC BEH C18 1.7 μm 2.1×100 column. Buffer A was 0.1% (v/v) formic acid in water and buffer B was 0.1% (v/v) formic acid in acetonitrile. The flow rate was 0.5 mL/min. The initial % B was 10, which was held for 30 s then ramped up to 90% B over 3 min, held at 90% B for 1 min, ramped down to 10% B over 15 s, and then held at 10% B for 15 s. The UV-Vis spectrum from 210-400 nm was monitored with 3.6 nm resolution. Positive and negative mode ESI were monitored from 100-1000 m/z with a 20 V cone voltage at 5 Hz sampling frequency in centroid collection.
The relative starting material remaining in the WT ClbP reaction was determined by LCMS and then compared to the residual starting material in the no-enzyme and catalytically inert enzyme (S95A ClbP) reactions. In an ideal case, the amount of residual starting material in the WT ClbP reaction was <25% of the amount in the S95A ClbP and no-enzyme conditions. In an acceptable case, the amount of residual starting material in the WT ClbP reaction was 25-75% of the amount in the S95A ClbP and no-enzyme conditions. In a non-preferred case, the amount of residual starting material in the WT ClbP reaction was >75% of the amount in the S95A ClbP and no-enzyme conditions.
Formation of the anticipated product was likewise quantified by LCMS analysis and confirmed by coelution with an external product standard. In an ideal case, the amount of product formed in the WT ClbP reaction corresponded to >75% of the theoretical maximum. In an acceptable case, the amount of product formed in the WT ClbP reaction corresponded to 25-75% of the theoretical maximum. In a non-preferred case, the amount of product formed in the WT ClbP reaction corresponded to <25% of the theoretical maximum.

[4] = In vitro Colonic Material Stability Assay; type: in vitro ADME; conditions: colonic material slurry, anaerobic, 1 or 10 μM, 24 h
Summary of the method: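 Compounds were added at 1 or 10 μM final to colonic material slurry (6.7 μL of 15% w/v slurry per 1 mL YCFAC or similar medium). Samples taken at 0–2880 min were acetonitrile-quenched and the remaining compound quantified by LC/MS.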

[5] = 10 nM compound, CT26.CL25 cells, CellTiter-Glo

| SMILES | Bacteria-free media (Luminescence, average of three runs) (CT26.CL25 cells; [5]) | % payload released in ClbP negative (BL21 DE3) at 1:1 ratio of E. coli to fecal bacteria (E. coli BL21(DE3) [1]) | % payload released in ClbP positive (Nissle 1917) at 1:1 ratio of E. coli to fecal bacteria (E. coli Nissle 1917) | % Remaining in ClbP Positve Relative to Media-Only [2] | Difference between the ClbP Positive and ClbP Negative release profiles [2] | % Remaining in ClbP Negative Relative to Media-Only (E. coli BL21(DE3) [3]) | Assay 3 (% Remaining at 24 h) [4] | other results |
| --- | --- | --- | --- | --- | --- | --- | --- | --- |
| CCc1c2c(nc3ccc(O)cc13)-c1cc3c(c(=O)n1C2)COC(=O)[C@]3(O)CC [SN-38, 7-ethyl-10-hydroxy-camptothecin, reference compound] | 121387 | – | – | – | – | – | – | – |
| CCCCCCCC(=O)N[C@H](CC(N)=O)C(=O)NCCN(C)C(=O)Oc1ccc2nc3c(c(CC)c2c1)Cn1c-3cc2c(c1=O)COC(=O)[C@]2(O)CC [Example 76, (S)-4,11-diethyl-4-hydroxy-3,14-dioxo-3,4,12,14-tetrahydro-1H-pyrano[3′,4′:6,7]indolizino[1,2-b]quinolin-9-yl (2-((R)-4-amino-2-octanamido-4-oxobutanamido)ethyl)(methyl)carbamate] | 282345 | 0% | 25% | – | – | – | – | – |
| CCCCCCCC(=O)N[C@H](CC(N)=O)C(=O)NCCCC(=O)OCn1cc(F)c(=O)[nH]c1=O [Example 72B, (5-fluoro-2,4-dioxo-3,4-dihydropyrimidin-1(2H)-yl)methyl (R)-4-(4-amino-2-octanamido-4-oxobutanamido)butanoate] | – | 5.4% | 41.1% | ++ (<25% compound remaining in the 20 μM WT ClbP reaction relative to the control) | particularly favorable difference | − (>75% compound remaining in the 20 μM WT ClbP reaction relative to the no-enzyme control) | – | – |
| CCCCCCCC(=O)N[C@H](CC(N)=O)C(=O)NCCNC [(R)—N1-(2-(methylamino)ethyl)-2-octanamidosuccinamide, reference compound] | – | – | – | – | – | – | – | Bacteria-free media (Luminescence, average of three runs) (CT26.CL25 cells; 0.01 µM): 278313 |
| COC(=O)[C@H](C)NC(=O)[C@@H](CC(N)=O)NC(=O)c1ccccc1 [Example 13, Methyl benzoyl-D-asparaginyl-L-alaninate] (Bz-[dN]-Ala-OMe) | – | – | – | ++ (<25% compound remaining in the 20 μM WT ClbP reaction relative to the control) | particularly favorable difference | + (between 25-75% compound remaining in the 20 μM WT ClbP reaction relative to the no-enzyme control) | C (>75% of the tested compound remaining) | Status (compound remaining in WT ClbP reaction relative to no-enzyme control) (WT ClbP; 100 μM compound): ++ (<25% compound remaining in the 20 μM WT ClbP reaction relative to the control) |
| CCCCCCCC(=O)N[C@H](CC(=O)O)C(=O)N[C@@H](C)C(=O)OC [Example 8, (R)-4-(((S)-1-methoxy-1-oxopropan-2-yl)amino)-3-octanamido-4-oxobutanoic acid] (Octanoyl-[dD]-Ala-OMe) | – | – | – | − (>75% compound remaining in the 20 μM WT ClbP reaction relative to the no-enzyme control) | – | + (between 25-75% compound remaining in the 20 μM WT ClbP reaction relative to the no-enzyme control) | B (25-75% of the tested compound remaining) | Status (compound remaining in WT ClbP reaction relative to no-enzyme control) (WT ClbP; 500 μM compound): − (>75% compound remaining in the 20 μM WT ClbP reaction relative to the no-enzyme control) |
